For 13 compounds, IC50 results are on record in US20140073634A1 (Institute For Applied Cancer Science/The University of …, priority 2012, published 2014).

Where only a bound is given, the exact number is not on record here.

This assay has as its system 293T-HRE-GFP-luc cells. The assay can be described thus: Cell-based reporter assay for IC50 determinations (HRE-luciferase, hypoxia). The settings on record: 6 h, 6 hrs hypoxia (1% O2), luminescence. An outline of the steps: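 IC50s come from four-parameter logistic fits of luminescence. Compounds in 1:3 DMSO series were added to 293T-HRE-GFP-luc cells, 30 min normoxia preceding 6 hrs at 1% O2, 37° C; HRE-luciferase signal was then measured with Steadylite Plus reagent.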
With `NS(=O)(=O)c1cccc(Cn2nc(-c3nc(-c4ccc(OC(F)(F)F)cc4)no3)ccc2=O)c1` [Example 119], the IC50 was under 100 nM. The result for `CC(C)(C)OC(=O)NCCOc1cccc(Cn2cc(-c3nc(-c4ccc(OC(F)(F)F)cc4)no3)ccc2=O)c1` [Example 150, tert-butyl N-(2-{3-[(2-oxo-5-{3-[4-(trifluoromethoxy)phenyl]-1,2,4-oxadiazol-5-yl}-1,2-dihydropyridin-1-yl)methyl]phenoxy}ethyl)carbamate] reads under 100 nM; that for `CS(=O)(=O)CCCOc1cccc(Cn2cc(-c3noc(-c4ccc(OC(F)(F)F)cc4)n3)ccc2=O)c1` [Example 69, 1-(3-(3-(Methylsulfonyl)propoxy)benzyl)-5-(5-(4-(trifluoromethoxy)phenyl)-1,2,4-oxadiazol-3-yl)pyridin-2(1H)-one], under 100 nM.

Compound `O=c1ccc(-c2nc(-c3ccc(OC(F)(F)F)cc3)no2)cn1Cc1cccc(N2CCCCC2)c1` [Example 160, 1-{[3-(piperidin-1-yl)phenyl]methyl}-5-{3-[4-(trifluoromethoxy)phenyl]-1,2,4-oxadiazol-5-yl}-1,2-dihydropyridin-2-one] displayed an IC50 of under 100 nM. In the case of `CS(=O)(=O)C1CCN(c2cccc(Cn3cc(-c4nnc(-c5ccc(OC(F)F)cc5)o4)ccc3=O)c2)CC1` [Example 105, 5-(5-(4-(Difluoromethoxy)phenyl)-1,3,4-oxadiazol-2-yl)-1-(3-(4-(methylsulfonyl)piperidin-1-yl)benzyl)pyridin-2(1H)-one] it was under 100 nM. In the case of `CS(=O)(=O)CCCOc1cccc(Cn2cc(-c3noc(-c4ccc(S(=O)(=O)C(F)(F)F)cc4)n3)ccc2=O)c1` [Example 211, 1-{[3-(3-methanesulfonylpropoxy)phenyl]methyl}-5-[5-(4-trifluoromethanesulfonylphenyl)-1,2,4-oxadiazol-3-yl]-1,2-dihydropyridin-2-one] it was under 100 nM; in that of `O=c1ccc(-c2nc(-c3ccc(OC(F)(F)F)cc3)no2)cn1Cc1cccc(O)c1` [Example 32, 1-[(3-Hydroxyphenyl)methyl]-5-{3-[4-(trifluoromethoxy)phenyl]-1,2,4-oxadiazol-5-yl}-1,2-dihydropyridin-2-one], 100 to 1000 nM; in that of `O=c1ccc(-c2nc(-c3ccc(OC(F)(F)F)cc3)no2)nn1Cc1ccnc(N2CCOCC2)c1` [Example 12, 2-((2-Morpholinopyridin-4-yl)methyl)-6-(3-(4-(trifluoromethoxy)phenyl)-1,2,4-oxadiazol-5-yl)pyridazin-3(2H)-one], under 100 nM. The result for `COCCOc1cccc(Cn2cc(-c3noc(-c4ccc(OC(F)F)cc4)n3)ccc2=O)c1` [Example 197, 5-{5-[4-(difluoromethoxy)phenyl]-1,2,4-oxadiazol-3-yl}-1-{[3-(2-methoxyethoxy)phenyl]methyl}-1,2-dihydropyridin-2-one] reads under 100 nM; that for `COCCOc1cccc(Cn2cc(-c3nc(-c4ccc(C5(O)CCOCC5)cc4)no3)ccc2=O)c1` [Example 215, 5-{3-[4-(4-hydroxyoxan-4-yl)phenyl]-1,2,4-oxadiazol-5-yl}-1-{[3-(2-methoxyethoxy)phenyl]methyl}-1,2-dihydropyridin-2-one], 100 to 1000 nM; that for `O=c1ccc(-c2nc(-c3ccc(OC(F)(F)F)cc3)no2)cn1Cc1cccc(OC2COC2)c1` [Example 166, 1-{[3-(oxetan-3-yloxy)phenyl]methyl}-5-{3-[4-(trifluoromethoxy)phenyl]-1,2,4-oxadiazol-5-yl}-1,2-dihydropyridin-2-one], under 100 nM. In turn, `COCCOc1cccc(Cn2cc(-c3noc(-c4cnc(SC)nc4)n3)ccc2=O)c1` [Example 86, 1-(3-(2-Methoxyethoxy)benzyl)-5-(5-(2-(methylthio)pyrimidin-5-yl)-1,2,4-oxadiazol-3-yl)pyridin-2(1H)-one] returned an IC50 of under 100 nM.

As for `CS(=O)(=O)N1CCN(c2cccc(Cn3cc(-c4nc(-c5ccc(OC(F)(F)F)cc5)no4)ccc3=O)c2)CC1` [Example 61], the IC50 was under 100 nM.
